# Measurements from publication PMC7749516, “Safety and nonclinical and clinical pharmacokinetics of PC945, a novel inhaled triazole antifungal agent” (Pharmacology Research & Perspectives, 2020).
# Several values for one entry are separate records, joined by “and”; a condition that tells them apart may be missing. Equal entries are not always repeated. Marks after values point to notes of the source that are not given here.
# Key:
# [1] = Toxicokinetics/toxicity in dogs, daily 2-hour inhalation for 14 days (plasma); conditions: for Ro (accumulation ratio): AUC0‐24h (Day14)/AUC0‐24h (Day 1)
# From the text: Each dose was inhaled over a 2‐hour period once daily for 14 days.
# Lower limit of quantification of the assay was 10 pg/mL for clinical samples and 100 pg/mL for rat and dog plasma samples.
# [2] = Clinical pharmacokinetics, single ascending inhaled dose in healthy subjects (Cohort 1); format: in vivo, human; conditions: for AUC0–24h / C max / AUC0–∞ / t ½: geometric mean (CV%); for t max: median (range), postend of inhalation
# Procedure: This PC945 first‐in‐human clinical trial (ClinicalTrials.gov Identifier: NCT02715570) was a two‐part randomized, placebo‐controlled study to assess the safety and tolerability of PC945 in both healthy subjects and subjects with mild asthma, conducted at Parexel Early Phase Clinical Unit (Harrow, UK). The study was considered single‐blind as the appearance of active and placebo doses were different, however, it was conducted in a double‐blind manner (employing separate dosing and assessment teams).
# (§1) Part one consisted of a single dose escalation study (Cohort 1) and a repeat dose study (Cohort 2) of inhaled PC945 in healthy subjects. Part two comprised a single dose study of inhaled PC945 in subjects with mild asthma (Cohort 3). The doses selected were predicted to achieve target lung concentrations above the IC90/MIC90 for A. fumigatus (based on data from a range of in vitro and in vivo systems) throughout a 24‐hour period and with a suitable safety margin based on animal toxicology data.
# In Cohort 1, 11 healthy subjects (three males and eight females; mean age: 48.5 years, mean weight: 65.32 kg, mean body mass index [BMI]: 23.62 kg/m^2), attended the single ascending dose study. Eight healthy subjects started the study in which two subjects were randomized to each of the four ascending dose treatment sequences (Table 1); two subjects withdrew due to adverse events unrelated to study medication and both were replaced. One of the replacement subjects subsequently withdrew from the study for personal reasons and was replaced by another subject (Figure 1). Overall, six subjects each received three of four doses of PC945 (0.5, 2, 5, and 10 mg) and one dose of placebo. These doses were administered with a minimum of 13 days interval to allow for washout.
# (§2) Serial blood samples were collected to determine plasma PC945 concentrations. For the single dose study in healthy subjects and in subjects with mild asthma, blood samples were collected predose and at 0.25, 0.5, 1, 2, 4, 6, 8, 24, 30, and 48 hours postend of inhalation and at the follow‐up visit. For the repeat dose study, blood samples were collected (a) predose and at 0.25, 0.5, 1, 2, 4, 6, 8, 10, 12, and 24 hours postend of inhalation on Days 1 and 7, and 30 and 48 hours on Day 7; (b) predose on Days 5 and 6; (c) at the follow‐up visit.
# [3] = test system: CYP1A2, 2B6, 2C8, 2C9, 2C19, 2D6; experiment: CYP inhibition in pooled human liver microsomes, other isoforms; format: in vitro ADME
# Procedure: PC945 and posaconazole (Sigma‐Aldrich, UK) were added to the pooled human liver microsomal samples (Pharmaron Rushden, UK) at concentrations of 0, 0.03, 0.1, 0.3, 1, 3, and 5 μmol/L. The mixtures were preincubated at 37°C for 0 or 30 minutes before the addition of selective CYP substrates. Microsomal reactions were terminated by adding 100 μL of cold (4°C) methanol containing appropriate internal standard. Aliquots (150 μL) of each sample were centrifuged and the supernatant was used for substrate analysis by ultra‐performance liquid chromatography with tandem mass spectrometry (UPLC‐MS/MS) on the day of incubations.
# Change in substrate concentration was measured to determine the extent of CYP‐isoform inhibition. The 30‐minute preincubations were performed to determine whether there was time‐dependent inhibition of any CYP isoform (CYP1A2, 2B6, 2C8, 2C9, 2C19, 2D6, and 3A4/5). Untreated control contained only solvent, dimethyl sulfoxide (≤0.5% [v/v]). Positive control contained a chemical inhibitor selective for each CYP enzyme in the […].
# [4] = In vitro plasma protein binding; format: in vitro ADME; conditions: 0.1‐50 µmol/L
# Procedure: Plasma protein binding of PC945 was determined by […] in pooled plasma samples from human, dog, rat, and mouse. PC945 was tested at 0.1, 1, 5, 25, and 50 µmol/L in plasma for each species. PC945‐containing plasma samples were centrifuged at 238 859 g for 20 hours at 37°C. Supernatant was removed and diluted. The concentration of unbound PC945 was determined using LC‐MS/MS, from which the extent of protein binding was calculated.
# CYP3A4/5 = experiment: CYP inhibition in pooled human liver microsomes; format: in vitro ADME
# [5] = Clinical pharmacokinetics, single inhaled dose in subjects with mild asthma (Cohort 3); format: in vivo, human; conditions: single inhaled 5 mg
# From the text: as §1
# In Cohort 3, nine subjects with mild asthma (six males and three females; mean age: 37.7 years, mean weight: 82.70 kg, mean BMI: 26.48 kg/m^2) received a single dose of PC945 5 mg or placebo (PC945:placebo = 2:1).
# as §2
# [6] = female dogs, Day 14 of inhaled 1.7 mg/kg/day, mean
# [7] = female dogs, Day 14 of inhaled 5.3 mg/kg/day, mean
# [8] = female dogs, Day 14 of inhaled 18.1 mg/kg/day, mean
# [9] = female dogs, single inhaled dose 1.7 mg/kg, mean ± SD
# [10] = female dogs, single inhaled dose 5.3 mg/kg, mean ± SD
# [11] = female dogs, single inhaled dose 18.1 mg/kg, mean ± SD
# [12] = male dogs, Day 14 of inhaled 1.7 mg/kg/day, mean
# [13] = male dogs, Day 14 of inhaled 5.3 mg/kg/day, mean
# [14] = male dogs, Day 14 of inhaled 18.1 mg/kg/day, mean
# [15] = male dogs, single inhaled dose 1.7 mg/kg, mean ± SD
# [16] = male dogs, single inhaled dose 5.3 mg/kg, mean ± SD
# [17] = male dogs, single inhaled dose 18.1 mg/kg, mean ± SD
# [18] = substrate midazolam, 30‐minute preincubation
structure (smiles),measurement,setting,value
Cc1cc(N2CCN(c3ccc(C(=O)Nc4ccc(F)cc4)cc3)CC2)ccc1OC[C@@H]1CO[C@@](Cn2cncn2)(c2ccc(F)cc2F)C1 [PC945],Margin over the clinical AUC following a 5 mg dose,"[1]; dog, highest dose tested",threefold
same,Time of C max after a single dose,"[1]; dogs, after the 2‐hour dosing period",immediately
same,Systemic toxicity,"[1]; dogs, highest dose tested",No systemic toxicity
same,Ro (accumulation ratio),"[1]; female dogs, 1.7 mg/kg/day",2.27
same,Ro (accumulation ratio),"[1]; female dogs, 5.3 mg/kg/day",1.88
same,Ro (accumulation ratio),"[1]; female dogs, 18.1 mg/kg/day",1.26
same,AUC0‐24h,[1]; [6],27.7 ng·h/mL
same,C max,[1]; [6],2.3 ng/mL
same,AUC0‐24h,[1]; [7],73.3 ng·h/mL
same,C max,[1]; [7],5.5 ng/mL
same,AUC0‐24h,[1]; [8],114 ng·h/mL
same,C max,[1]; [8],7.8 ng/mL
same,AUC0‐24h,[1]; [9],12.2 ± 2.9 ng·h/mL
same,C max,[1]; [9],1.5 ± 0.5 ng/mL
same,AUC0‐24h,[1]; [10],39.0 ± 2.7 ng·h/mL
same,C max,[1]; [10],4.3 ± 0.7 ng/mL
same,AUC0‐24h,[1]; [11],90.6 ± 6.7 ng·h/mL
same,C max,[1]; [11],10.2 ± 1.3 ng/mL
same,Ro (accumulation ratio),"[1]; male dogs, 1.7 mg/kg/day",2.06
same,Ro (accumulation ratio),"[1]; male dogs, 5.3 mg/kg/day",1.84
same,Ro (accumulation ratio),"[1]; male dogs, 18.1 mg/kg/day",2.29
same,AUC0‐24h,[1]; [12],35.5 ng·h/mL
same,C max,[1]; [12],2.8 ng/mL
same,AUC0‐24h,[1]; [13],70.9 ng·h/mL
same,C max,[1]; [13],5.6 ng/mL
same,AUC0‐24h,[1]; [14],203 ng·h/mL
same,C max,[1]; [14],13.5 ng/mL
same,AUC0‐24h,[1]; [15],17.2 ± 3.5 ng·h/mL
same,C max,[1]; [15],2.2 ± 0.3 ng/mL
same,AUC0‐24h,[1]; [16],38.5 ± 1.8 ng·h/mL
same,C max,[1]; [16],4.6 ± 0.4 ng/mL
same,AUC0‐24h,[1]; [17],88.5 ± 25.8 ng·h/mL
same,C max,[1]; [17],9.7 ± 2.4 ng/mL
same,Increase in C max for a doubling in dose,"[2]; single doses 0.5 to 10 mg, 90% CI 1.54, 2.02",1.77 fold
same,Increase in AUC0–24h for a doubling in dose,"[2]; single doses 0.5 to 10 mg, 90% CI 1.64, 2.15",1.88 fold
same,AUC0–24h,[2]; single inhaled 0.5 mg,726 (73.4) ^a pg•h/mL
same,C max,[2]; single inhaled 0.5 mg,54.7 (64.8) ^a pg/mL
same,AUC0–∞,"[2]; single inhaled 0.5 mg, n = 2",1480 (7.41) ^b pg•h/mL
same,t ½,"[2]; single inhaled 0.5 mg, n = 2, considered unreliable",36.9 (24.1) ^b h
same,t max,[2]; single inhaled 0.5 mg,1 h and 1.10 (0.250‐2.10) ^a h
same,AUC0–24h,[2]; single inhaled 2 mg,1990 (102) pg•h/mL
same,C max,[2]; single inhaled 2 mg,128 (107) pg/mL
same,AUC0–∞,"[2]; single inhaled 2 mg, n = 3",3140 (175) ^c pg•h/mL
same,t ½,"[2]; single inhaled 2 mg, n = 3, considered unreliable",27.9 (58.4) ^c h
same,t max,[2]; single inhaled 2 mg,4 h and 4.11 (2.09‐8.11) h
same,AUC0–24h,[2]; single inhaled 5 mg,5440 (48.0) pg•h/mL
same,C max,[2]; single inhaled 5 mg,322 (51.1) pg/mL
same,t ½,"[2]; single inhaled 5 mg, n = 4, considered unreliable",37.3 (36.4) ^d h
same,t max,[2]; single inhaled 5 mg,5 h and 5.10 (2.08‐8.12) h
same,C max,[2]; single inhaled 10 mg,619 (39.1) pg/mL
same,t ½,"[2]; single inhaled 10 mg, considered unreliable",110 (16.5) h
same,t max,[2]; single inhaled 10 mg,2 h and 2.13 (0.330‐6.15) h
same,Time‐dependent effect on other CYP isoforms,[3]; 30‐minute preincubation,no time‐dependent effect
same,"Cytochrome P450 inhibitory interaction, isoforms other than CYP3A4/5",[3]; up to 5 μmol/L,only cytochrome P450 inhibitory interaction observed for PC945 was that on CYP3A4/5 substrates
same,Mean percentage protein bound,[4]; dog plasma,91% and 91.1%
same,Mean percentage protein bound,[4]; human plasma,96.6%
same,Mean percentage protein bound,[4]; mouse plasma,96.2%
same,Mean percentage protein bound,[4]; rat plasma,97.8%
same,Shift in potency for CYP3A4/5 following preincubation,CYP3A4/5,fivefold
same,"IC50, CYP3A4/5",CYP3A4/5; microsomes,0.168 µg/mL
same,IC50,CYP3A4/5; [18],17 nM
same,"IC50, CYP3A4/5",CYP3A4/5; [18],0.0116 µg/mL
same,IC50,"CYP3A4/5; substrate midazolam, without preincubation, pooled human liver microsomes",85 nM
same,AUC0–24h,[5],4.95 ng·h/mL
same,median t max,[5],4 h
same,C max,[5]; geometric mean,0.335 ng/mL
